Assay results taken from patent US20100075917A1, “THIONUCLEOSIDES AND PHARMACEUTICAL APPLICATIONS” (priority 2006, published 2010).
Read-outs that look alike come from different tables or passages of the source.

Experiments:
CEM cells = assay: Cytotoxic concentration in CEM cells (antiviral tests); type: cell-based, human; conditions: First and Second Series, second table; viability of CEM cells
Description: (§1) The toxicity and the antiviral activities were measured at different concentrations, and their evolution as a function of the concentration makes it possible to evaluate: • the concentration at which 50% of the cells are dead in the absence of virus (CC 50) for each of the test compounds, from the change in absorbance at 540 nm of formazan as a function of the concentration of test compound, • the concentration of compound that leads to a 50% reduction in the activity of viral reverse transcriptase (EC 50). This concentration is determined from the curve representing the change in the percentage of “remaining reverse transcriptase” activity (defined as being the ratio of the activity of the reverse transcriptase in the presence of the test compound to that of the untreated cells) as a function of the concentration of test compound.
CC50: cytotoxic concentration or concentration required to reduce the viability of the CEM cells by 50%.

human CEM T4 lymphocytes = assay: Cytotoxic effect on CEM T4 lymphocytes; type: cell-based; parameters: unit not given beside the values; conditions: Tables 5 and 7, CEM cells
HIV-1 = assay: Anti-HIV-1 effect in CEM cells; type: cell-based; conditions: Human immunodeficiency virus 1, CCRF-CEM, read-out: EC50 HIV-1
Description: (§2) The evaluation test is described in Roy, B.; Chambert, S.; Lepoivre M.; Aubertin, A.-M.; Balzarini, J.; Décout, J.-L., Deoxyribonucleoside 2′- or 3′-mixed disulfides: prodrugs to target ribonucleotide reductase and/or to inhibit HIV reverse transcription. J. Med. Chem. 2003, 46, 2565-2568.
as §1
(§3) EC50: concentration required to afford 50% protection to the CEM cells against the cytopathogenicity of HIV;

human CEM cells = assay: Cytotoxicity (MTT) on CEM cells; type: cell-based; conditions: Homo sapiens, CCRF-CEM, Tables 4 and 6, CEM cells; some values 'then plateau'
Description: The cytotoxic effect of a compound is studied on human CEM cells and MCF-7 mammary carcinoma cells that are or are not resistant to gemcitabine, which is an anticancer nucleoside used in chemotherapy.
The cytotoxicity (CC50) was estimated by measuring the reduction of 3-(4,5-dimethylthiazol-2-yl)-2,5-diphenyltetrazolium bromide (MTT), which is converted into insoluble violet formazan. To do this, 100 000 cells (human CEM-SS or MCF-7 lines) are inoculated per well in 100 μl of culture medium, in 96-well microtitration plates. After 24 hours, the test products are added in 100 μl and incubation is continued for 48 to 72 hours. MIT is then added in a proportion of 20 μl of a solution at 5 mg/ml in PBS. Three hours later, 100 μl of a DMF/acetic acid/HCl/SDS (sodium dodecyl sulfate) solution are added. After 3 hours at 37° C., the absorbance of the formazan is measured at 590 nm and compared with that of the untreated control.

[1] = test system: FM3A/0 murine mammary carcinoma cells; assay: Cytotoxic effect on FM3A/0 cells; type: cell-based; parameters: unit not given beside the values; conditions: Tables 5 and 7, FM3A/0 cells
HIV-2 [2] = assay: Anti-HIV-2 effect in CEM/TK− cells; type: cell-based; conditions: Human immunodeficiency virus 2, CEM-TK(-); Third Series; CEM cells having no thymidine kinase activity
Description: as §2, §1, §3
• Effect in CEM not expressing thymidine kinase activity (CEM/TK^−, cells having no thymidine kinase activity).

[3] = test system: L1210/0 murine leukemia cells; assay: Cytotoxic effect on L1210/0 cells; type: cell-based; conditions: Tables 5 and 7, L1210/0 cells
HeLa cells = assay: Cytotoxic effect on HeLa cells; type: cell-based; parameters: unit not given beside the values; conditions: Tables 5 and 7, HeLa cells
human Molt4/C8 cells = assay: Cytotoxic effect on Molt4/C8 cells; type: cell-based; conditions: Tables 5 and 7, Molt4/C8 cells
HIV-2 [4] = assay: Anti-HIV-2 effect in CEM cells; type: cell-based; conditions: Human immunodeficiency virus 2, CCRF-CEM, CEM cells, read-out: EC50 HIV-2
Description: as §2, §1, §3

[5] = First and Second Series, second table

Cc1cn([C@H]2C[C@H](SSC(Cl)(Cl)Cl)[C@@H](CO)O2)c(=O)[nH]c1=O [Compound 22, 3′-deoxythymidin-3′-yl trichloromethyl disulfide]
CC50 (CEM cells): 103 ± 4 µM
cytotoxic effect, CEM (human CEM T4 lymphocytes): 121 ± 18
EC50 (HIV-1; [5]): 25 µM
EC50 (HIV-1; Third Series): 20 µM
EC50 (human CEM cells): 21 µM
cytotoxic effect, FM3A/0 [1]: 244 ± 49
EC50 (HIV-2 [2]): 22.5 ± 3.5 µM
cytotoxic effect, L1210/0 [3]: 45 ± 1
cytotoxic effect, HeLa (HeLa cells): 39 ± 10
cytotoxic effect, Molt4/C8 (human Molt4/C8 cells): 55 ± 19
EC50 (HIV-2 [4]; [5]): 17.5 ± 3.5 µM
EC50 (HIV-2 [4]; Third Series): 27.5 ± 3.5 µM
